Measurements taken from patent publication US20180161310A1, “COMPOUNDS AND METHODS FOR THE TREATMENT OF NEUROLOGICAL DISORDERS” (Teleos Therapeutics, LLC, priority 2016, published 2018).
“And” between values parts separate entries of the source, which are not always exact repeats. Equal entries are not always repeated.

Experiments:
human KCC2 = biological target: T1, human KCC2 (Homo sapiens, UniProt Q9H2X9); test: Thallium flux assay in HEK293 cells transiently transfected with human KCC2; type: cell-based; conditions: HEK293 cells over-expressing human KCC2
T1 construct: expressed in transfected cells; host or cells: HEK293
T1 sequence (Q9H2X9 1-1139): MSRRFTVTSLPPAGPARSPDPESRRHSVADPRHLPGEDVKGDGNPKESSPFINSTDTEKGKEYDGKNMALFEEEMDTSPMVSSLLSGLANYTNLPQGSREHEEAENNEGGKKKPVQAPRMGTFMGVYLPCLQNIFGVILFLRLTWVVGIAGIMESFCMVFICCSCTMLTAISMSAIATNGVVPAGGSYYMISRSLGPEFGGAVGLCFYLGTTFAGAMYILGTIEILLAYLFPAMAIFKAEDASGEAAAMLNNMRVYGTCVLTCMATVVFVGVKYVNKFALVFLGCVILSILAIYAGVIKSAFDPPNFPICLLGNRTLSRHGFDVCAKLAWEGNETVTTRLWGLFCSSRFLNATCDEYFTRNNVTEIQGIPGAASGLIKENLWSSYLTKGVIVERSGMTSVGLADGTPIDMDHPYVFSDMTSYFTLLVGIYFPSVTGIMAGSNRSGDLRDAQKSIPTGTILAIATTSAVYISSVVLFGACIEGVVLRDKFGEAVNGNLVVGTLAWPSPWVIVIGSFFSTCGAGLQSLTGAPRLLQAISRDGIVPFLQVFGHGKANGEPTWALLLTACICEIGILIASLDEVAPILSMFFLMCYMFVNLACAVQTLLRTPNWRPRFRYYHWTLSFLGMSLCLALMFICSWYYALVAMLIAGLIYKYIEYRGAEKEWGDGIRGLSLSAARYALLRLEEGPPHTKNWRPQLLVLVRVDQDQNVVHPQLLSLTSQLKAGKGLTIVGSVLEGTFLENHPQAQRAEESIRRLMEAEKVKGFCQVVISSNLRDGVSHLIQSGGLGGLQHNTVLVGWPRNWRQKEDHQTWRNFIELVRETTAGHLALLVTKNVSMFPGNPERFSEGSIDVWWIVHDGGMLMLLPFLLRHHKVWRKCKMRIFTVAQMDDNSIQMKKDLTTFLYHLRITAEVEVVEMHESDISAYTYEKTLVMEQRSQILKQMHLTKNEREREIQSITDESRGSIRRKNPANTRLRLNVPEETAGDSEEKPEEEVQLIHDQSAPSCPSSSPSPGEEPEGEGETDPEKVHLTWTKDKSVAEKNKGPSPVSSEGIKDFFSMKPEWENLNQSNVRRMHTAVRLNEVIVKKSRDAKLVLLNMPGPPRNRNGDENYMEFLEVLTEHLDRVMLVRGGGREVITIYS
Method: Phenotype-based screens, as described herein, are high-content and make use of complex behaviors to identify novel modulators, which may function through various mechanisms. Thus, hits identified in the suppressor screens described herein may or may not act directly on KCC2. To test whether the three hit compounds directly alter the activity of the transporter, thallium flux assays were performed in HEK293 cells transiently transfected with human KCC2 in order to measure the influx rate of KCC2 activity (see, e.g., Appendix B).

zebrafish larvae = type: in vivo
Text: In an effort to determine how pharmacological inhibition of KCC2 affects zebrafish behaviors, 7 days post-fertilization (dpf) zebrafish larvae can be treated with two analogs of the selective KCC2 inhibitor, VU0463271 and VU0240551, and their behavioral responses in a battery of behavioral assays can be assessed. These behavioral assays can include a series of visual and acoustic stimuli presented to larval zebrafish in various contexts and combinations to elicit robust and reproducible patterns of activity. For example, behavioral assays can include two acoustic-stimulus-response (ASR1 and ASR2) assays, six visual-stimulus-response (VSR1-VSR6) assays, and three assays that combine acoustic and visual stimulus responses (AVSR1-AVSR3). Together, such a battery of behavioral assays use six stimuli, including red light (600 nm), blue light (420 nm), violet light (405 nm), green light (525 nm), low-intensity sound (60 dB) and high-intensity sound (70 dB). Behavioral responses of the larval zebrafish can be measured by a motion index (MI) that quantifies the motor activity of at least about 8 zebrafish larvae in each well of a 96-well plate.
Referring to FIGS. 1A-1B, zebrafish behavioral profiles can include a battery of individual behavioral assays labeled ASR1, AVSR1, ASR2, VSR1, VSR2, VSR3, VSR4, AVSR2, VSR5, AVSR3, and VSR6, as described herein. These behavioral assays can be combined to form a Motion Index (MI), which is a quantification of the motor activity of at least about 8 zebrafish larvae in each well of a 96-well plate. As shown in the representative images of FIGS. 1A-1B, zebrafish larvae were treated with DMSO (control), VU0463271 (FIG. 1A), or pentylentetrazol or PTZ (FIG. 1B).
Treatment with increasing doses of VU0463271 induced a unique and dose-dependent profile of behavioral responses, detectable at 2.5 μM and 5 μM. […] This relatively low concentration of VU0463271 elicited a reproducible behavioral profile with altered sensitivity of the fish larvae to specific combinations of stimuli. […] The increased MI in the AVSR1 and AVSR3 assays due to VU0463271 treatment reflects a seizure-like hyperexcitability in the larval fish.
Additionally, seizures have been induced in 7 dpf zebrafish larvae using pentylentetrazol (PTZ) treatment, and motor and electroencephalographic (EEG) responses were consistent with seizure phenotypes.

## CCN1C(=O)C=CC1=O [N-ethylmaleimide]
Human KCC2
  rate of 10 mM [K+]o-induced thallium influx (KCC2-mediated flux): significantly increased

## Cc1csc(N(C(=O)CSc2ccc(-c3ccccc3)nn2)C2CC2)n1 [VU0463271, N-Cyclopropyl-N-(4-methyl-2-thiazolyl)-2-[(6-phenyl-3-pyridazinyl)thio]acetamide]
Human KCC2
  rate of 10 mM [K+]o-induced thallium influx (KCC2-mediated flux): significantly reduced
Zebrafish larvae; 2.5 μM
  MI in the ASR2 and VSR assays: reduced
Zebrafish larvae; 2.5 μM, seizure-like hyperexcitability
  behavioral responses in the AVSR1 and AVSR3 assays: increased
Zebrafish larvae; 10 μM, very low MI
  effect on MI along the assay battery: sedative effect
Zebrafish larvae; 7 dpf larvae
  concentration at which the dose-dependent profile of behavioral responses was detectable: 2.5 µM and 5 µM
